Earlier results on one molecule are cited in US20250120959A1, “NEW FORMULATIONS OF PITOLISANT AND METHODS OF USE” (Bioprojet Pharma, priority 2023, published 2025).

The structures appear in SMILES notation. Structures can show the parent of a compound that is named as a salt.

As to `Clc1ccc(CCCOCCCN2CCCCC2)cc1` [Formula (Ia), 1-[3-[3-(4-chlorophenyl)propoxy]propyl]-piperidine monohydrochloride], the pKa entry is recorded as “approximately 10.5”.
